Each compound was assayed against Guanine nucleotide-binding protein G(o) subunit alpha (Homo sapiens, UniProt P09471) (assay: RGS7-Galphao interaction regulators, SAR follow-up, multiplexed assay, additional SAR round (AID 2826)).
Guanine nucleotide-binding protein G(o) subunit alpha, sequence (P09471 whole entry): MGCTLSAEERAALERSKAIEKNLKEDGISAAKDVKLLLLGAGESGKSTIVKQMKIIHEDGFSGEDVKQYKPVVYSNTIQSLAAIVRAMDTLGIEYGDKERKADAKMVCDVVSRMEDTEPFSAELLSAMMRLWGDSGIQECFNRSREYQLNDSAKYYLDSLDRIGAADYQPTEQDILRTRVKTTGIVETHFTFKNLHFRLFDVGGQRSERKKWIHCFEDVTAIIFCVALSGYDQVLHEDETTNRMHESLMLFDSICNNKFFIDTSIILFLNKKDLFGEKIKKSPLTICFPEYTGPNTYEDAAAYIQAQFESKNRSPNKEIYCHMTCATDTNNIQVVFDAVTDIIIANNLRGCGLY
`Cc1ccc2c(Cl)c(C(=O)NCCCN3CCOCC3)sc2c1` [KUC103874N] showed an EC50 greater than 30 µM.
Compound `O=C(NCCCn1ccnc1)c1sc2cc([N+](=O)[O-])ccc2c1Cl` [3-chloro-N-[3-(1-imidazolyl)propyl]-6-nitro-1-benzothiophene-2-carboxamide] has an EC50 greater than 30 µM.
`O=C(c1sc2cc([N+](=O)[O-])ccc2c1Cl)N1CCNCC1` gave an EC50 greater than 30 µM.
In the case of `NC(=O)c1sc2cc([N+](=O)[O-])ccc2c1Cl` [KSC-1-100], the EC50 is reported as greater than 30 µM.
`O=C(NCCCN1CCOCC1)c1sc2cc([N+](=O)[O-])ccc2c1Cl` [3-chloranyl-N-(3-morpholin-4-ylpropyl)-6-nitro-1-benzothiophene-2-carboxamide] showed an EC50 greater than 30 µM.
